Source: EPA's ToxRefDB 2

Key:
mouse [1] = details: Combined chronic toxicity/carcinogenicity, b6c3f1, Oral, Gavage/Intubation, dose end: 2 year, group: systemic
rat [2] = details: Combined chronic toxicity/carcinogenicity; fischer; Oral; Gavage/Intubation; dose end: 2 year; group: systemic; systemic / pathology microscopic / kidney / hyperplasia + systemic / pathology microscopic / kidney / nephropathy + systemic / pathology …
rat [3] = details: Peri- and post-natal toxicity study (Segment III), wistar, Oral, Gavage/Intubation, dose end: 21 PND
rat [4] = details: Subchronic oral toxicity in rodents, fischer, Gavage/Intubation, dose end: 14 week, group: systemic
mouse [5] = details: Subchronic oral toxicity in rodents, b6c3f1, Gavage/Intubation, dose end: 14 week, group: systemic
rat [6] = details: Prenatal developmental toxicity study, wistar, Oral, Gavage/Intubation, dose end: 15 GD
mouse [7] = details: Reproduction/developmental toxicity screening test; cd1; Injection; Intraperitoneal; dose end: 14 day; group: maternal; reproductive / reproductive performance / fertility / fertility + reproductive / reproductive performance / implantations / implantations + …
rat [8] = details: Reproduction/developmental toxicity screening test; wistar; Injection; Intraperitoneal; dose end: 45 PND; group: parental; systemic / organ weight / ovary / nos
rat [9] = details: Fertility (Segment I), wistar, Injection, Intraperitoneal, dose end: 7 day
[10] = systemic / pathology microscopic / liver / adenoma/carcinoma combined + systemic / pathology microscopic / liver / adenoma + systemic / …
[11] = group: developmental, developmental / developmental landmark / eye opening / eye opening + developmental / developmental landmark / pinna unfolding / pinna …
[12] = group: maternal, reproductive / reproductive performance / dystocia / dystocia + reproductive / reproductive performance / fertility / fertility + …
[13] = group: offspring, systemic / in life observation / body weight / offspring (pup) weight
[14] = group: parental, systemic / in life observation / body weight / body weight + systemic / in life observation / body weight / body weight gain + systemic / in…
[15] = systemic / organ weight / kidney / absolute + systemic / organ weight / kidney / relative to body weight + systemic / organ weight / liver…
[16] = systemic / organ weight / kidney / relative to body weight + systemic / organ weight / liver / absolute
[17] = group: developmental, developmental / developmental malformation / bone / [other] + developmental / developmental malformation / bone / delayed ossification + …
[18] = group: maternal, reproductive / reproductive performance / implantations / implantations + systemic / in life observation / body weight / body weight gain + …
[19] = group: maternal, reproductive / reproductive performance / estrous cycle / length
[20] = group: parental, systemic / clinical chemistry / estradiol / estradiol, free + systemic / pathology microscopic / vagina / diestrus

C=CC(=C)CCC=C(C)C [Myrcene]
> 1200 mg/kg/day: LOAEL (rat [6]; [17]) | LOAEL (rat [6]; [18])
> 1500 mg/kg/day: LOAEL (rat [3]; [11]) | LOAEL (rat [3]; [12]) | LOAEL (rat [3]; [13]) | LOAEL (rat [3]; [14])
250 mg/kg/day: NOAEL (mouse [1]; systemic / pathology microscopic / liver / adenoma/carcinoma combined + systemic / in life observation / body weight / body weight + …) | LEL (mouse [1]; [10]) | LEL (rat [2]) | LOAEL (rat [2]) | NEL (rat [3]; [11]) | NEL (rat [3]; group: maternal, reproductive / offspring survival early / dead fetuses / dead fetuses + reproductive / offspring survival early / litter viability other / …) | NEL (rat [3]; [13]) | LEL (rat [4]; [15]) | NOAEL (rat [4]; [15]) | LEL (mouse [5]; [16])
500 mg/kg/day: LOAEL (mouse [1]; systemic / in life observation / body weight / body weight + systemic / pathology microscopic / liver / hypertrophy + systemic / pathology …) | LEL (rat [3]; group: developmental, developmental / developmental malformation / general / [other]) | LEL (rat [3]; group: maternal, reproductive / offspring survival early / litter viability other / litter viability) | LEL (rat [3]; [13]) | NEL (rat [3]; [14]) | LOAEL (rat [4]; systemic / organ weight / kidney / absolute + systemic / organ weight / kidney / relative to body weight + systemic / pathology microscopic…) | NOAEL (mouse [5]; systemic / organ weight / liver / absolute + systemic / in life observation / body weight / body weight + systemic / in life observation / …) | NEL (rat [6]; [17]) | NEL (rat [6]; [18])
≥ 1500 mg/kg/day: NOAEL (rat [3]; [11]) | NOAEL (rat [3]; [12]) | NOAEL (rat [3]; [13]) | NOAEL (rat [3]; [14])
≥ 1200 mg/kg/day: NOAEL (rat [6]; [17]) | NOAEL (rat [6]; [18])
1200 mg/kg/day: LEL (rat [6]; [17]) | LEL (rat [6]; [18])
1000 mg/kg/day: LEL (rat [3]; group: parental, systemic / in life observation / body weight / body weight gain + systemic / pathology microscopic / stomach / hyperkeratosis) | LOAEL (mouse [5]; systemic / in life observation / body weight / body weight + systemic / in life observation / body weight / body weight gain)
< 250 mg/kg/day: NEL (mouse [1]; [10]) | NEL (rat [2]) | NOAEL (rat [2]) | NEL (rat [4]; [15]) | NEL (mouse [5]; [16])

CC(=O)S[C@@H]1CC2=CC(=O)CC[C@]2(C)[C@H]2CC[C@@]3(C)[C@@H](CC[C@@]34CCC(=O)O4)[C@H]12 [Spironolactone]
> 100 mg/kg/day: LOAEL (mouse [7]) | LOAEL (rat [8]) | LOAEL (rat [9]; [19]) | LOAEL (rat [9]; [20])
100 mg/kg/day: LEL (mouse [7]) | LEL (rat [8]) | LEL (rat [9]; [19]) | LEL (rat [9]; [20])
< 100 mg/kg/day: NEL (mouse [7]) | NEL (rat [8]) | NEL (rat [9]; [19]) | NEL (rat [9]; [20])
≥ 100 mg/kg/day: NOAEL (mouse [7]) | NOAEL (rat [8]) | NOAEL (rat [9]; [19]) | NOAEL (rat [9]; [20])
